Data set [1] concerns the target T1, LinB (Sphingobium indicum, UniProt D4Z2G1).
T1 construct: His-tagged, expressed in E. coli BL21(DE3), Ni-NTA purified; PDB 1MJ5 given for the docking model of the same protein
T1 sequence (D4Z2G1 2-296): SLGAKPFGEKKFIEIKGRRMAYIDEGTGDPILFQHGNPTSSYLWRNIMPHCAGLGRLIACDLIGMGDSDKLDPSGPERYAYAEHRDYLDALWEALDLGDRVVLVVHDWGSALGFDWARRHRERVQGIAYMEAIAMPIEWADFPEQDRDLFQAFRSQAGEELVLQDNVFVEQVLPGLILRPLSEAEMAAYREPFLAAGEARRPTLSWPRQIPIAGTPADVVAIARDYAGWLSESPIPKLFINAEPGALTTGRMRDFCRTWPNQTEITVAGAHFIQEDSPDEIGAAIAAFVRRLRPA
Kind of data set: stopped-flow tryptophan fluorescence after preincubation. The class given is biochemical. The following applies: 100 mM glycine pH 8.6, 37 °C; slow irreversible inhibition, substrate E-3c.

The target in data set [2] is T2, DmmA (Lyngbya majuscula, UniProt Q6DND9).
T2 construct: gene curN; His-tagged, expressed in E. coli BL21(DE3), Ni-NTA purified; PDB 3U1T for the docking model of the same protein
T2 sequence (Q6DND9 25-341): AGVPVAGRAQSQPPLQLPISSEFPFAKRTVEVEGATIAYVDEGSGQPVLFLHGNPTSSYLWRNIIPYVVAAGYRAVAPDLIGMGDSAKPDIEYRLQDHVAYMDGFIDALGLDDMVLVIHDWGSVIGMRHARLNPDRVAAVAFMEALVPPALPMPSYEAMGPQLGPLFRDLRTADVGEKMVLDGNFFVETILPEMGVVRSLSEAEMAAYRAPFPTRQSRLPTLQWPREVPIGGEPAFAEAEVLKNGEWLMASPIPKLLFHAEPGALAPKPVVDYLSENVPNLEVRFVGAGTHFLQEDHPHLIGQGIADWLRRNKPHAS
The data set is described as follows: ITC progress curves. It is filed as biochemical. From the text:
ITC progress curves on DmmA | Z-isomer of substrate 3a binds to the enzyme’s active site and functions as a competitive inhibitor

Data set [3] deals with T2, DmmA. Kind of data set: global fit of stopped-flow fluorescence/absorbance and ITC. It is filed as biochemical. The following applies: 100 mM glycine pH 8.6, 37 °C; enzyme-product complex after isomerization (EP2); read-out: K5. From the text:
global fit of stopped-flow fluorescence/absorbance and ITC on DmmA

Data set [4] concerns the target T1, LinB. The description is as above. The class given is biochemical. The following applies: 100 mM glycine pH 8.6, 37 °C. The text has this:
global fit of stopped-flow fluorescence/absorbance and ITC on LinB

Substrate in the data set “ITC progress curves”: C[N+](C)(C)Cc1ccc(/N=N/c2cccc(CCl)c2)cc1
Kind of data set: ITC progress curves. The class given is biochemical, Lyngbya majuscula. The following applies: 100 mM glycine pH 8.6, 37 °C.

Where two headings read alike, the source gives them in different places.

Usually Ki stands for the dissociation constant of the complex between target and ligand, obtained from inhibition or displacement. Read a high Ki as weaker binding. Broadly, the Km is the substrate concentration at which the rate is half of its maximum. Broadly, the kcat is the maximal rate divided by the concentration of active sites.

As for `C[N+](C)(C)Cc1ccc(/N=N\c2cccc(CCl)c2)cc1` (mixture of isomers) [3c, Z-3c], the “stopped-flow tryptophan fluorescence after preincubation” value at LinB [1] is “the inhibition effect of Z-3c was significantly more prominent in the case of LinB”.

Consider `COCCOCCOc1ccc(/N=N\c2cccc(CCl)c2)cc1` [3a, Z-3a], for which the Ki on DmmA [2] was 0.035 ± 0.001 µM.

For `C[N+](C)(C)Cc1ccc(/N=N/c2cccc(CO)c2)cc1` [3c, E-3c-OH], the Kd on DmmA [3] is 3.55 ± 1.01 µM; at LinB [4] (enzyme-product complex (EP), read-out: K4), 11.6 ± 0.1 µM.

For `C[N+](C)(C)Cc1ccc(/N=N/c2cccc(CCl)c2)cc1` [3c, E-3c], the Kd on LinB [4] (equilibrium dissociation constant of enzyme-substrate complex, read-out: K1) came out at 7.39 ± 0.03 µM.

B1: DmmA (Lyngbya majuscula) (protein)
chain: AGVPVAGRAQSQPPLQLPISSEFPFAKRTVEVEGATIAYVDEGSGQPVLFLHGNPTSSYLWRNIIPYVVAAGYRAVAPDLIGMGDSAKPDIEYRLQDHVAYMDGFIDALGLDDMVLVIHDWGSVIGMRHARLNPDRVAAVAFMEALVPPALPMPSYEAMGPQLGPLFRDLRTADVGEKMVLDGNFFVETILPEMGVVRSLSEAEMAAYRAPFPTRQSRLPTLQWPREVPIGGEPAFAEAEVLKNGEWLMASPIPKLLFHAEPGALAPKPVVDYLSENVPNLEVRFVGAGTHFLQEDHPHLIGQGIADWLRRNKPHAS
notes: His-tagged, expressed in E. coli BL21(DE3), Ni-NTA purified; PDB 3U1T for the docking model of the same protein
Regarding B1, in the data set “ITC progress curves”, the Michaelis constant (Km) is 850 ± 40 µM and the kcat was found to be 0.50 ± 0.03 s⁻¹.

For the origin of these results see publication PMC11301625, “Azobenzene-Based Photoswitchable Substrates for Advanced Mechanistic Studies of Model Haloalkane Dehalogenase Enzyme Family” (ACS Catalysis, 2024).
